Assay results: US12721835B2, “Anticoccidial composition comprising violacein, and use thereof” (CJ CHEILJEDANG CORPORATION, priority 2020, dated 2026)

How the values were obtained:
Eimeria tenella [1] = experiment: In vivo anticoccidial activity upon single inoculation (broilers, formulated feed); design: key to ACI: ACI out of 200 = survival% + RWG% − lesion×10 − oocyst index; details: Eimeria tenella infection; for Lesion score: appendix, scale 0-4, 8th day; for Oocyst excretion amount/g: feces day 6-8; for Lesion index: lesion score x 10; for ACI: out of 200 points; for Survival rate after challenge inoculation (%): up to 8th day; for RWG(%): vs non-infected negative control
Method: An in vivo anticoccidial efficacy evaluation test was performed in an animal experiment facility in Gyeongsangnam-do, South Korea. One-day-old female Ross broilers were individually weighed and randomly divided into groups to use in an experiment. Matters and conditions for experimental design were described in Table 2.
A breeding farm was managed according to the Korean poultry breeding management guidelines. Cages and the breeding farm were cleaned and disinfected before starting the test. The temperature of […] and the humidity of 40 to 50% of the breeding farm were maintained, and it was continuously monitored.
For the feed, Korea Feed Al-choi product was used, and each material (diclazuril (Yuhan Corporation YUHAN DICLA product), salinomycin (Cheil Bio Cheilsalino-60 product), violacein (CJ Cheiljedang)) was added to the feed, respectively, at a concentration described in Table 3 below to be self-mixed. Antibiotics and supplements were not used in general feed and mixed feed, and no anticoccidial agent other than each material was added. Broilers were fed ad libitum throughout the experiment period. After putting 15 1-day-age broilers in cages randomly placed for each of the control group or test group and breeding, general feed (Al-choi product) was fed for 7 days, and then the mixed feed prepared above was ingested by dividing by control group or test group. The non-infected negative control group used 1cage, and the infected negative control group and experimental group used 2cage to progress the experiment.
The feed formulation administered to the control group (negative control group or positive control group) and test group and whether coccidiosis was induced by Eimeria tenella were described in Table 3 below.
14-day-old broilers were orally inoculated with 10,000 oocysts (90% sporulated Eimeria tenella oocysts) per individual to induce coccidiosis.
The anticoccidial efficacy by test group designed in Example 1-2 above was shown as an anticoccidial index (ACI), and the anticoccidial index was calculated by Equation 2 below. The ACI score is out of 200 points, and the higher the ACI score, the more excellent the anticoccidial ability, and when it is 120 points or more to less than 140 points, it is determined that it is effective as an anticoccidial material, and when it is 140 points or more to less than 160 points, it is determined that it is excellent as an anticoccidial material, and when it is 160 points or more, it is determined that the anticoccidial effect is very excellent (Luis Miguel De Pablos et al., Anticoccidial activity of maslinic acid against infection with Eimeria tenella in chickens, Parasitol Res, 2010). Anticoccidial index (ACI)=(survival rate after challenge inoculation(%))+(daily weight gain compared to negative control group (RWG,%))−(lesion score×10)−(fecal oocyst excretion amount index) (Equation 2) • 1) Survival rate: the number of dead individuals was recorded daily, and post mortem autopsy was performed to determine a cause of mortality, and the number of individuals who died due to causes other than coccidiosis was excluded. The survival rate (%) up to the 8th day after challenge inoculation was used for anticoccidial index calculation. The measured survival rate was described in Table 4 below. • 2) Daily weight gain: body weight was measured for each cage before challenge inoculation with a protozoan into an individual and at the 7th day after challenge inoculation, and the difference was divided by the number of days to calculate the daily weight gain (ADG, g/d). ‘Daily weight gain compared to the negative control group (RWG, %)’ which was calculated by dividing the daily weight gain (ADG, average daily gain; g/d) of each experimental group by the weight gain (ADG, g/d) of the non-infected negative control group and multiplying by 100 was used for anticoccidial index calculation. […]

Eimeria tenella [2] = experiment: Cell invasion inhibition of protozoa in MDBK cells (ITS-1 PCR); assay type: cell-based; details: read-out: Cell invasion inhibitory effect of protozoa (%)
Method: In the present example, using MDBK cell line which is a representative animal cell known to cause Eimeria infection and propagation, the inhibition ability of intracellular protozoan invasion and intracellular protozoal propagation of the violacein was investigated.
100,000 MDBK cells (purchased from ATCC) were aliquoted in a 24-well plate, and then incubated at a temperature of 37° C. for 12 hours. The protozoan of Eimeria tenella was obtained similar to the method of Example 3 above. 200,000 protozoa per one well were added to wells in which cells were aliquoted, and each material (violacein and anticoccidial agents, salinomycin, diclazuril and gallic acid) was treated to the cells by concentration, and cultured at a temperature of 41° C. for 24 hours. A negative control group is a MDBK cell infected by protozoa of Eimeria tenella, and a positive control group means a group in which salinomycin, diclazuril or gallic acid solution was incubated with the Eimeria tenella protozoan. […] After removing the cells and protozoa inside the cells through pipetting, DNA was extracted from the cells, and PCR was performed using E. tenella ITS-1 (Internal transcribed spacer-1) gene-specific primers. The sequences of the used primers were described in Table 9 below.
Ct values before/after washing for each material were compared and corrected with the ΔCt value of the negative control group to calculate the cell invasion inhibition rate (%) of the protozoa through treatment of each material, and the result was shown in FIG. 3 and Table 10 below.

[3] = test system: Eimeria maxima (E. maxima) protozoa (sporozoites); experiment: Acid resistance of violacein: protozoal death rate after acid exposure; assay type: cell-based
Method: In the present example, the acid resistance of the violacein was to be evaluated. […] Then, it was neutralized (pH 7.0) by adding sodium hydroxide (NaOH) solution, and 200,000 Eimeria maxima (E. maxima) protozoa (sporozoites) were exposed to the violacein at various concentrations of 0.1 to 100 ppm diluted using PBS solution, and they were reacted at a temperature of 41° C. for 4 hours. In Table 11, the control group means a violacein treatment group without treating the acidic condition, and the protozoa alone means a group to which violacein was not treated.

## CC[C@@H](C(=O)[C@@H](C)[C@@H](O)[C@H](C)[C@@H]1O[C@@H]([C@@H](CC)C(=O)O)CC[C@@H]1C)[C@H]1O[C@]2(C=C[C@@H](O)[C@]3(CC[C@@](C)([C@H]4CC[C@](O)(CC)[C@H](C)O4)O3)O2)[C@H](C)C[C@@H]1C [Salinomycin, salinomycin, reference compound]
Eimeria tenella [1]; feed 60 ppm
  ADG(g/d) after challenge inoculation: 56 g/day
  Oocyst index: 10
  Lesion score: 2.6
  Oocyst excretion amount/g: 1.3e+08 g⁻¹
  Lesion index: 26
  ACI: 139
  Survival rate after challenge inoculation (%): 87%
  RWG(%): 88%
Eimeria tenella [2]; MDBK, 24 h
  inhibition at 5 ppm: 50.1%
  inhibition at 10 ppm: 56.4%

## O=C1N=c2ccccc2=C1c1cc(-c2c[nH]c3ccc(O)cc23)[nH]c1O [Violacein, 3-(2-(5-Hydroxyindol-3-yl)-5-oxo-2-pyrrolin-4-ylidene)-2-indolinone]
[3]; Control group (no acidic condition), 0.1 ppm
  Death rate according to violacein treatment condition: 64%
[3]; Control group (no acidic condition), 1 ppm
  Death rate according to violacein treatment condition: 85%
[3]; Control group (no acidic condition), 10 ppm
  Death rate according to violacein treatment condition: 100%
[3]; Control group (no acidic condition), 100 ppm, 41° C. 4 hours
  Death rate according to violacein treatment condition: 100.00%
[3]; acidic pH, 40° C., 1 hour, then neutralized
  Acid resistance (killing efficacy after strong acidic condition): did not lose the killing efficacy
[3]; pH 2, 1 h, 0.1 ppm
  Death rate according to violacein treatment condition: 64%
[3]; pH 2, 1 h, 1 ppm
  Death rate according to violacein treatment condition: 84%
[3]; pH 2, 1 h, 10 ppm
  Death rate according to violacein treatment condition: 99%
[3]; pH 2, 1 h, 100 ppm
  Death rate according to violacein treatment condition: 100.00%
[3]; pH 2.5, 1 h, 0.1 ppm
  Death rate according to violacein treatment condition: 61%
[3]; pH 2.5, 1 h, 1 ppm
  Death rate according to violacein treatment condition: 83%
[3]; pH 2.5, 1 h, 10 ppm
  Death rate according to violacein treatment condition: 99%
[3]; pH 2.5, 1 h, 100 ppm
  Death rate according to violacein treatment condition: 100.00%
[3]; pH 3, 1 h, 0.1 ppm
  Death rate according to violacein treatment condition: 63%
[3]; pH 3, 1 h, 1 ppm
  Death rate according to violacein treatment condition: 86%
[3]; pH 3, 1 h, 10 ppm
  Death rate according to violacein treatment condition: 99%
[3]; pH 3, 1 h, 100 ppm
  Death rate according to violacein treatment condition: 100.00%
Eimeria tenella [1]; feed 10 ppm
  ADG(g/d) after challenge inoculation: 60 g/day
  Oocyst index: 10
  Lesion score: 2.1
  Oocyst excretion amount/g: 1.3e+08 g⁻¹
  Lesion index: 21
  ACI: 162
  Survival rate after challenge inoculation (%): 100%
  RWG(%): 94%
Eimeria tenella [1]; feed 40 ppm
  ADG(g/d) after challenge inoculation: 58 g/day
  Oocyst index: 10
  Lesion score: 2.7
  Oocyst excretion amount/g: 9e+07 g⁻¹
  Lesion index: 27
  ACI: 145
  Survival rate after challenge inoculation (%): 90%
  RWG(%): 91%
Eimeria tenella [2]; MDBK cells, 0.5 ppm, 41° C. 24 hours
  inhibition at 0.5 ppm: 59.5%
Eimeria tenella [2]; MDBK cells, 1 ppm, 41° C. 24 hours
  inhibition at 1 ppm: 78.6%
